# According to ChEMBL document CHEMBL1201862, “PubChem BioAssay data set” (2004):
#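 Values below derive from 48-hour exposures of cells grown in 96-well plates, with endpoints linearly interpolated between the two concentrations bracketing the appropriate inhibition level. The concentration for 50% growth inhibition is given as GI50.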 The source made the active and inactive calls. Rule as the data show it: active = GI50 up to about 1.1 µM and inactive = higher.
# What was measured:
# Experiment in all cases: growth of human tumour cells (NCI), 48 h
# HCT-15 = tested on: HCT-15
# HL-60 = tested on: HL-60
# HOP-62 = tested on: HOP-62
# M14 = tested on: M14
# MCF7 = tested on: MCF7
# MDA-MB-435 = tested on: MDA-MB-435
# Malme-3M = tested on: Malme-3M
# NCI-H522 = tested on: NCI-H522
# OVCAR-5 = tested on: OVCAR-5
# OVCAR-8 = tested on: OVCAR-8
# RXF 393 = tested on: RXF 393
# SF-295 = tested on: SF-295
# SNB-19 = tested on: SNB-19
# SNB-75 = tested on: SNB-75
# SW-620 = tested on: SW-620
# T47D = tested on: T47D
# UACC-257 = tested on: UACC-257
# PC-3 = tested on: PC-3
# SK-MEL-2 = tested on: SK-MEL-2
# UACC-62 = tested on: UACC-62
SMILES,GI50 (HCT-15) [µM],GI50 (HL-60),GI50 (HOP-62),GI50 (M14),GI50 (MCF7),GI50 (MDA-MB-435),GI50 (Malme-3M),GI50 (NCI-H522),GI50 (OVCAR-5),GI50 (OVCAR-8),GI50 (RXF 393),GI50 (SF-295),GI50 (SNB-19),GI50 (SNB-75),GI50 (SW-620),GI50 (T47D),GI50 (UACC-257),GI50 (PC-3),GI50 (SK-MEL-2),GI50 (UACC-62)
COC(=O)c1cc(C)ccc1C1CN=NC12Cc1cccc(C)c1C2=O (stereo unspecified),27.6,12.7 µM (inactive),35.6 µM (inactive),16.7 µM (inactive),30.1 µM (inactive),26.3 µM (inactive),24.2 µM (inactive),21.3 µM (inactive),17.9 µM (inactive),33.1 µM (inactive),25 µM (inactive),36.1 µM (inactive),55.1 µM (inactive),77.3 µM (inactive),38.4 µM (inactive),12.3 µM (inactive),30.9 µM (inactive),–,–,–
COC(=O)c1c(C)cccc1CC1Cc2c(C)cccc2C1=O (stereo unspecified),25.8,16.9 µM (inactive),61.9 µM (inactive),31.5 µM (inactive),–,21.7 µM (inactive),21.6 µM (inactive),13.2 µM (inactive),80.2 µM (inactive),48.3 µM (inactive),27.9 µM (inactive),32.8 µM (inactive),48.3 µM (inactive),29.7 µM (inactive),40.6 µM (inactive),27.5 µM (inactive),27.8 µM (inactive),34.4 µM (inactive),18.7 µM (inactive),23.8 µM (inactive)
CCCC[P+](CCCC)(CCCC)C(C(=O)OC)C(C(=O)OC)=C1SC(C(=O)OC)=C(C(=O)OC)S1 (stereo unspecified),> 100,–,> 100 µM (inactive),> 100 µM (inactive),> 100 µM (inactive),> 100 µM (inactive),> 100 µM (inactive),> 100 µM (inactive),> 100 µM (inactive),> 100 µM (inactive),> 100 µM (inactive),> 100 µM (inactive),> 100 µM (inactive),> 100 µM (inactive),> 100 µM (inactive),> 100 µM (inactive),> 100 µM (inactive),> 100 µM (inactive),> 100 µM (inactive),> 100 µM (inactive)
O=C(N/N=C\c1ccc([N+](=O)[O-])cc1)Nc1ccc2ccccc2c1,38.6,–,22.2 µM (inactive),32.4 µM (inactive),32.5 µM (inactive),34.2 µM (inactive),22.5 µM (inactive),24.6 µM (inactive),34.8 µM (inactive),29.8 µM (inactive),> 100 µM (inactive),49.4 µM (inactive),52.1 µM (inactive),27.2 µM (inactive),23.1 µM (inactive),56.1 µM (inactive),44.3 µM (inactive),44.8 µM (inactive),> 100 µM (inactive),28.1 µM (inactive)
COc1cc2c[n+](C)c3c4ccccc4ccc3c2cc1OC,> 100,–,18.6 µM (inactive),18.1 µM (inactive),3.66 µM (inactive),3.83 µM (inactive),1.55 µM (inactive),0.302 µM (active),26.7 µM (inactive),2.71 µM (inactive),14.6 µM (inactive),16.9 µM (inactive),2.44 µM (inactive),5.89 µM (inactive),1.95 µM (inactive),2.06 µM (inactive),3.73 µM (inactive),4.89 µM (inactive),5.69 µM (inactive),4.6 µM (inactive)
CC(=O)/C=C1\Nc2ccc([N+](=O)[O-])cc2N\C1=C/C(C)=O,33.4,56.6 µM (inactive),44.9 µM (inactive),> 100 µM (inactive),–,82.4 µM (inactive),25.7 µM (inactive),16 µM (inactive),> 100 µM (inactive),33.5 µM (inactive),64.3 µM (inactive),42.2 µM (inactive),42.2 µM (inactive),> 100 µM (inactive),64.6 µM (inactive),33.8 µM (inactive),21.9 µM (inactive),44.3 µM (inactive),29.2 µM (inactive),26.7 µM (inactive)
CCOC(CCCN1CCC2(CC1)C(=O)N(C)CN2c1ccccc1)(OCC)c1ccc(F)cc1,10.1,13 µM (inactive),4.6 µM (inactive),10.7 µM (inactive),3.8 µM (inactive),–,16.2 µM (inactive),16.9 µM (inactive),7.89 µM (inactive),15.4 µM (inactive),19.2 µM (inactive),12.7 µM (inactive),10.2 µM (inactive),19.4 µM (inactive),10.4 µM (inactive),4.95 µM (inactive),6.14 µM (inactive),15.7 µM (inactive),–,16 µM (inactive)
COc1cc2oc3c(c(=O)c2c(O)c1/C=C/C(C)C)C(C=C(C)C)Oc1cc(O)ccc1-3 (stereo unspecified),15.8,17.8 µM (inactive),–,13.3 µM (inactive),14.4 µM (inactive),15.9 µM (inactive),22.5 µM (inactive),16.8 µM (inactive),17 µM (inactive),16.2 µM (inactive),–,17.1 µM (inactive),16.4 µM (inactive),15.3 µM (inactive),16.1 µM (inactive),16.4 µM (inactive),18.2 µM (inactive),15.6 µM (inactive),16 µM (inactive),17.2 µM (inactive)
CNC(=O)N1CN(c2ccccc2)C2(CCN(Cc3ccccc3)CC2)C1=O,15,43.1 µM (inactive),> 100 µM (inactive),> 100 µM (inactive),8.93 µM (inactive),–,70.1 µM (inactive),> 100 µM (inactive),1.05 µM (active),> 100 µM (inactive),> 100 µM (inactive),> 100 µM (inactive),> 100 µM (inactive),> 100 µM (inactive),46.1 µM (inactive),1.87 µM (inactive),> 100 µM (inactive),93.1 µM (inactive),–,69.8 µM (inactive)
CC(=O)OC1CC[C@@]2(C)C(C1)CC(OC(C)=O)[C@@H]1C2CC(OC(C)=O)[C@]2(C)C(C(C)CC=C(c3ccc(Cl)cc3)c3ccc(Cl)cc3)CCC12 (stereo partly specified),38.1,4.7 µM (inactive),94.4 µM (inactive),80.4 µM (inactive),38.8 µM (inactive),> 100 µM (inactive),–,21.8 µM (inactive),36.8 µM (inactive),80.4 µM (inactive),–,52.1 µM (inactive),58.6 µM (inactive),49.5 µM (inactive),49.8 µM (inactive),32.1 µM (inactive),38.6 µM (inactive),23.6 µM (inactive),–,–
CC(=O)NCCSC(=O)c1ccccc1,0.156,–,0.148 µM (active),0.0923 µM (active),0.0653 µM (active),0.18 µM (active),0.119 µM (active),0.215 µM (active),0.141 µM (active),0.192 µM (active),0.112 µM (active),0.147 µM (active),0.916 µM (active),0.741 µM (active),0.0295 µM (active),0.197 µM (active),0.19 µM (active),0.525 µM (active),0.295 µM (active),0.013 µM (active)
